Measured values taken from US5639715A, “Aqueous based drilling fluid additive and composition” (M-I Drilling Fluids LLC, priority 1994, dated 1997).

How the values were obtained:
Type in all cases: physicochemical
[1] = lubricity coefficient, Baroid lubricity meter (Table 4); conditions: 1% solution in deionized water
Procedure: A 1% solution of surfactant as in deionized water was tested on a Baroid lubricity meter (Model No. 21200-EP/Lubricity Tester). The lubricity coefficient of the samples were calculated and recorded in Table 4. Deionized water was used as base.

[2] = coefficient of friction on sandstone, Lubricity Evaluation Monitor (LEM) (Table 5); conditions: 1/2% in 22.5 ppb bentonite slurry
Procedure: The following experiment shower the lubricity properties of surfactants of this invention in 22.5 ppb bentonite slurry in water. The coefficient of friction on sandstone was determined using a Lubricity Evaluation Monitor (LEM) designed by M-I Drilling Fluids Company.

[3] = surface tension measurement at various concentrations and temperatures
Procedure: The surface tension measurement were carried out on Monawet SNO-35 and coco diethanolamide (CDA) at various concentrations and various temperatures. The following results establish that the higher surface tension values of the products of this invention when compared to the prior art, coco diethanolamide (CDA), would have lower foaming in drilling fluid applications.

Lubricity coefficient [1]: .095 | Coefficient of Friction [2]: 0.168 | Surface Tension ([3]; 0.1% in DI water, 24 °C): 51 dynes per centimeter | Surface Tension ([3]; 0.1% in DI water, 38 °C): 47 dynes per centimeter | Surface Tension ([3]; 0.1% in DI water, 43 °C): 45 dynes per centimeter | Surface Tension ([3]; 0.1% in DI water, 50 °C): 44 dynes per centimeter | Surface Tension ([3]; 1.0% in DI water, 24 °C): 49 dynes per centimeter | Surface Tension ([3]; 1.0% in DI water, 36 °C): 42 dynes per centimeter | Surface Tension ([3]; 1.0% in DI water, 45 °C): 38 dynes per centimeter | Surface Tension ([3]; 1.0% in DI water, 50 °C): 37 dynes per centimeter | Surface Tension ([3]; 2.0% in DI water, 24 °C): 46 dynes per centimeter | Surface Tension ([3]; 2.0% in DI water, 38 °C): 41 dynes per centimeter | Surface Tension ([3]; 2.0% in DI water, 44 °C): 39 dynes per centimeter | Surface Tension ([3]; 2.0% in DI water, 49 °C): 37 dynes per centimeter
SMILES: CCCCCCCCCCCCCCCCCCN(C(=O)CC(C(=O)O)S(=O)(=O)O)C(CC(=O)O)C(=O)O (stereo not shown) [Monawet SNO-35, tetrasodium N-(1,2-dicarboxyethyl) N-alkyl (C18) sulfosuccinamate]
% Reduction (lubricity coefficient) ([1]; versus DI water): 72% | % Reduction (coefficient of friction) [2]: 73.9%
